# Source: patent US20220096529A1, “2-HYDROXYPROPYL-BETA-CYCLODEXTRIN (HPBETACD) FOR USE IN THE TREATMENT OF BREAST CANCER” (UNIVERSITY OF THE WITWATERSRAND, JOHANNESBURG, priority 2019, published 2022)
# pIC50: −log10 of the molar value. Where two headings read alike, the source gives them in different places.
# Columns and labels:
# HEK-293 cells = assay type: cell-based, human
# Description: (§1) Cells were cultured in appropriate medium supplemented with 10% FCS, penicillin (100 U/ml), and streptomycin (100 μg/ml) (Gibco) at 5% CO2 in a 37° C. incubator.
# (§2) Four different cell lines were used MCF7 (ER+). MDA-MB-231 (ER−), MRC-5 (Lung Fibroblasts) and HEK-293 (Embryonic kidney). MRC-5 and/or HEK-293 were used as control cell lines depending on availability.
# (§3) In order to determine whether HPβCD has the ability to induce cancer cell death a primary screening using an MTT assay was performed. Three different time points 24 hrs.
# MRC-5 cells [1] = assay type: cell-based, human; conditions: for concentration for 50% growth inhibition in normal cells compared to cancerous cells: MRC-5 and HEK-293 vs cancerous cells
# Description: as §1, §2, §3
# MCF7 cells [2] = assay: ROS assay; assay type: cell-based, human
# Description: (§4) To further validate the occurrence of apoptosis and to investigate the exact mechanisms if apoptosis, a ROS assay was conducted to capture the production of ROS. […] In order to be in solidarity with this fact, a ROS assay was performed in three cell lines: MCF7, MDA-MB-231 & MRC-5. Like before, HPβCD and the positive (10 mM H2O2) were treated for 24 hrs. The right hand section in each plot represents the production of ROS.
# MDA-MB-231 cells [3] = assay: ROS assay; assay type: cell-based, human
# Description: as §4
# MRC-5 cells [4] = assay: ROS assay; assay type: cell-based, human
# Description: as §4
# MCF7 cells [5] = assay: Caspase 3/7 assay; assay type: cell-based, human; conditions: MCF7, 10 mM HPβCD
# Description: (§5) The final step in apoptosis following the intrinsic pathway is the activation of executioner caspases like caspase 3 and caspase 7 […]. Therefore, to confirm that cell death was due to the mitochondrial mediated pathway of apoptosis a Caspase 3/7 assay was conducted. Caspases are activated in response to a myriad of cellular death stimuli and they dismantle the cell. Caspase 3 and caspase 7 contribute to the majority of proteolytic cleavage occurring in apoptosis. As a final step to confirm and validate apoptosis via the mitochondrial intrinsic pathway, the Caspase 3/7 assay was conducted on three cell lines: MCF7, MDA-MB-231 & HEK-293. HPβCD and positive (40 μM PL) were treated for 24 hrs. The percentage of dead/apoptotic cells are clearly indicated in specific corners of each quadrants in the above plots.
# MDA-MB-231 cells [6] = assay: Caspase 3/7 assay; assay type: cell-based, human; conditions: MDA-MB-231, 10 mM HPβCD, 24 hrs
# Description: as §5
# MCF7 cells [7] = assay: Filipin cholesterol staining; assay type: cell-based, human
# MDA-MB-231 cells [8] = assay: Filipin cholesterol staining; assay type: cell-based, human
# Description: To further validate cholesterol depletion as observed from the cholesterol assay above a Filipin based cholesterol staining was conducted. MCF7. MDA-MB-231 cells were used. HEK-293 cells could not be used due to unavailability. HPβCD and the positive (5 mM MBCD) were treated for 24 hrs. Like PL, MBCD is also a well know cholesterol depletor.
# Fluorescence microscopy has been a robust tool for investigating the intracellular transport of proteins. Filipin specifically binds to cholesterol and can give an overall quantification and has been more recently been clinically used in the diagnosis of Type C Niemann-Pick disease.
# MCF7 cells [9] = assay: Mice xenograft, ER+ breast cancer; assay type: in vivo, Nude Mice, MF-1 strain
# Description: Since the potency of HPβCD against breast cancer was established in our in vitro assays, a thorough investigation in a mice model was conducted (Nude Mice. MF-1 strain). MCF-7 and MDA-MB-231 cells were injected in 32 mice (16 for each cell type) and after tumour development, was treated with HPβCD (3000 mg/kg b.w.). Thrice a week dose treatment plan was followed throughout the study.
# To examine if HPβCD can be used as a future anti-breast cancer drug, mice xenografts were prepared. MCF7 cells (5 million) cells were injected in 16 mice with weekly β-estradiol supplementation. The study for triple negative induced breast cancer (MDA-MB-231) is complete. Up to 4 million cells were injected in 16 mice. This was subdivided in three more groups namely: Late stage, intermediate stage and early stage estrogen negative cancer. 4 mice were grouped as untreated (not receiving HPβCD), 4 for treated (late stage), 3 for treated (intermediate stage) and 3 for treated (early stage).
# The anticancer effect of HPβCD on estrogen positive MCF7 cells induced tumours in xenograft mice model was also tested. The study was not completed as only 4 out of 16 mice developed tumours. But the mice who developed tumour were treated with HPβCD and 9.6% tumour reduction was observed (FIGS. 49 and 50).
# MDA-MB-231 tumours = assay: Filipin cholesterol staining of tumour tissue from mice; assay type: in vivo; conditions: intermediate and late stage tumours
# From the text: 4 from untreated, 3 from intermediate and 4 from late stage.
# MDA-MB-231 cells [10] = assay: BODIPY lipid droplet staining; assay type: cell-based, human
# From the text: Lipid droplets store cholesterol and HPβCD was able to reduce accumulation and storage of cholesterol in cancer cells.
# MCF7 cells [11] = assay: BODIPY lipid droplet staining; assay type: cell-based, human
# Description: Lipid droplets store cholesterol and HPβCD was able to reduce accumulation and storage of cholesterol in cancer cells (see FIG. 52). […] (A) is untreated, (B) is positive and (C) is treated. […] Lipid droplets store cholesterol and HPβCD was able to reduce accumulation and storage of cholesterol in cancer cells.
# MDA-MB-231 cells [12] = assay: Alexa Fluor lipid raft staining; assay type: cell-based, human
# MCF7 cells [13] = assay: Alexa Fluor lipid raft staining; assay type: cell-based, human
# Description: (B) is positive and (C) is treated.
substance,measurement,setting,value
2-hydroxypropyl-β-cyclodextrin [HPβCD],pIC50,"HEK-293 cells; HEK-293, 24 hrs",1.64
same,pIC50,"HEK-293 cells; HEK-293, 48 hrs",1.58
same,pIC50,"HEK-293 cells; HEK-293, 72 hrs",1.30
same,growth inhibition,"HEK-293 cells; HEK-293, till 10 mM HPβCD, 24 hrs and 48 hrs",absolutely zero growth inhibition
same,pIC50,"MRC-5 cells [1]; MRC-5, 24 hrs",1.68
same,pIC50,"MRC-5 cells [1]; MRC-5, 48 hrs",1.70
same,pIC50,"MRC-5 cells [1]; MRC-5, 72 hrs",1.38
same,growth inhibition,"MRC-5 cells [1]; MRC-5, till 10 mM HPβCD, 24 hrs and 48 hrs",absolutely zero growth inhibition
same,concentration for 50% growth inhibition in normal cells compared to cancerous cells,MRC-5 cells [1]; 24 hrs,almost double
same,concentration for 50% growth inhibition in normal cells compared to cancerous cells,MRC-5 cells [1]; 72 hrs,almost five times
same,ROS production compared to untreated,"MCF7 cells [2]; MCF7, 10 mM HPβCD",about 2.5 fold
same,ROS generation,"MCF7 cells [2]; MCF7, 10 mM, 24 hrs",17.9%
same,ROS production compared to untreated,"MDA-MB-231 cells [3]; MDA-MB-231, 10 mM HPβCD",about 4 fold
same,ROS generation,"MDA-MB-231 cells [3]; MDA-MB-231, 10 mM, 24 hrs",13.7%
same,ROS production compared to untreated,"MRC-5 cells [4]; MRC-5, 10 mM HPβCD",~4 folds
same,ROS generation,"MRC-5 cells [4]; MRC-5, 10 mM, 24 hrs",10.8%
same,total apoptosis compared to untreated,MCF7 cells [5],almost two times more
same,Total Apoptotic (caspase 3/7),MCF7 cells [5]; 24 hrs,12.5%
same,Total Apoptotic (caspase 3/7),MDA-MB-231 cells [6],48.75%
same,Filipin fluorescence compared to untreated,"MCF7 cells [7]; MCF7, 10 mM HPβCD, 24 hrs, ImageJ",four times less fluorescence
same,cholesterol (Filipin staining) in treated vs untreated cells,"MCF7 cells [7]; MCF7, FIG. 51",decreased cholesterol
same,Filipin fluorescence compared to untreated,"MDA-MB-231 cells [8]; MDA-MB-231, 10 mM HPβCD, 24 hrs, ImageJ",six times less fluorescence
same,cholesterol (Filipin staining) in treated vs untreated cells,"MDA-MB-231 cells [8]; MDA-MB-231, FIG. 46",decreased cholesterol
same,average tumour size,"MCF7 cells [9]; ER+ MCF7 mice, treated for 5 weeks",5.3 mm^3
same,tumour outcome,"MCF7 cells [9]; Mouse No. 29, 30 and 32, treated for 5 weeks",healed completely
same,tumour size,"MCF7 cells [9]; Mouse No. 31, treated for 5 weeks",21.28 mm^3
same,cholesterol (Filipin staining) in tumours compared to untreated,MDA-MB-231 tumours,decreased cholesterol
same,lipid droplets (BODIPY) in treated vs untreated cells,MDA-MB-231 cells [10],decrease in lipid droplets
same,lipid droplets (BODIPY) in treated vs untreated cells,MCF7 cells [11],decrease in lipid droplets
same,lipid rafts (ALEXA FLUOR) in treated vs untreated cells,MDA-MB-231 cells [12],decrease in lipid rafts
same,lipid rafts (ALEXA FLUOR) in treated vs untreated cells,MCF7 cells [13],decrease in lipid rafts
